These results are taken from patent publication US20230201134A1, “COMPOSITIONS FOR THE MANAGEMENT OF DEMYELINATING DISORDERS” (priority 2021, published 2023).

Holding throughout (format): in vivo, mouse
Experiment [1] deals with Transient receptor potential ankyrin 1 (TRPA1). Description: TRPA1 in brain tissue homogenate (ELISA), cuprizone/rapamycin demyelination model. The following applies: compared to the demyelination control, Withaferin A 25 mg/kg, BDMC 12.5 mg/kg, combination 37.5 mg/kg, orally once per day. The source says: (§1) The Eight-week-old male C56BL/6 J mice were selected and randomized into ten animals in each group (Table 1). Demyelination was induced by 0.3% cuprizone in combination with rapamycin (Hilary H S, Kathryn K B, Daniela C P, Priya N, Wendy B M. A New Model of Cuprizone-Mediated Demyelination/Remyelination. Am Society Neurochem. 2014: 1-16). Briefly, groups undergo demyelination by feeding on a diet containing 0.3% cuprizone mixed into Rodent Diet. These mice received additionally intra-peritoneal rapamycin injections 5 days a week with a vehicle solution.
(§2) After 8 weeks of treatment, all cuprizone feedings and all injections of rapamycin was discontinued. The animals were subjected to behavioral analysis and at end of study, brain samples and serum samples were collected for estimation of Molecular and protein biomarkers by ELISA and Immunohistochemistry of brain was assessed for Demyelination/Remyelination.
(§3) Withaferin A or BDMC were administered orally once per day to mouse, for 8 weeks after treatment with Cuprizone and Rapamycin (Table 1). The dose response of BDMC or Withaferin was assessed by measuring concentration of biomarkers, Myelin Oligodendrocyte Glycoprotein (MOG) (FIG. 1) Brain Derived Neurotrophic Factor (BDNF) (FIG. 2), in serum. […]

Experiment [2] concerns Myelin basic protein (MBP). Description: Myelin basic protein in brain tissue homogenate (ELISA), cuprizone/rapamycin demyelination model. To be noted: compared to the demyelination control, Withaferin A 25 mg/kg, BDMC 12.5 mg/kg, combination 37.5 mg/kg, orally once per day.
From the text: as §1, §2, §3

In experiment [3] the test system is CXC chemokine receptor 2 (CXCR2). Description: CXCR2 in brain tissue homogenate (ELISA), cuprizone/rapamycin demyelination model. The following applies: compared to the demyelination control, Withaferin A 25 mg/kg, BDMC 12.5 mg/kg, combination 37.5 mg/kg, orally once per day.
From the text: as §1, §2, §3

A further experiment deals with C-reactive Protein (CRP). The experiment can be described thus: C-reactive protein (ELISA), cuprizone/rapamycin demyelination model. To be noted: compared to the demyelination control, Withaferin A 25 mg/kg, BDMC 12.5 mg/kg, combination 37.5 mg/kg, orally once per day.
From the text: as §1, §2, §3

Experiment [4] has as its system Chondroitin Sulfate Proteoglycan 4 (NG2). Description: NG2 in brain tissue homogenate (ELISA), cuprizone/rapamycin demyelination model. To be noted: compared to the demyelination control, Withaferin A 25 mg/kg, BDMC 12.5 mg/kg, combination 37.5 mg/kg, orally once per day.
From the text: as §1, §2, §3

Experiment [5] deals with C56BL/6 J mice. Description: Grip strength test in demyelinated mice. To be noted: forelimb strength, compared to the demyelinated control; Withaferin A 25 mg/kg, BDMC 12.5 mg/kg, combination 37.5 mg/kg.
From the text: as §1, §2

For experiment [6], the system named is C56BL/6 J mice. The experiment can be described thus: Motor coordination and learning: Rotarod test in demyelinated mice. To be noted: Rotarod 16 rpm, 60 s, Withaferin A 25 mg/kg, BDMC 12.5 mg/kg, combination 25 + 12.5 mg/kg, demyelinated control 3/10.
From the text: as §1, §2
Motor coordination and balance were evaluated in a Rotarod apparatus which consists of a motor-driven rotating rod whose speed can be adjusted. All mice were evaluated on the Rotarod three times a day for two consecutive days, with the rotation set at 15 to 16 revolutions per minute (rpm) (Rozas, G.; Guerra, M. J.; Labandeira Garcia, J. L. An automated Rotarod method for quantitative drug-free evaluation of overall motor deficits in rat models of Parkinsonism. Brain Res. Protoc. 1997, 2, 75-84). To test the performance, the mice were placed on the rotating cylinder at an angle of 45 with an initial rotation speed of 16 rpm, and were allowed to run for 60 s. The trial was repeated after 5-10 min. The falls and flips (when the animal hangs on to the cylinder and continues all the way around) were recorded within 60 s of each trial.

The subject of experiment [7] is C56BL/6 J mice. Description: Locomotor activity test (Actophotometer) in demyelinated mice. To be noted: 5 minutes, p.o., Mean ± S.E., 10 animals; for locomotor activity score, 3 hr after treatment: demyelinated control 148 ± 14.48; for locomotor activity score, 2 hr after treatment: demyelinated control 158 ± 14.02; for locomotor activity score, 1 hr after treatment: demyelinated control 170 ± 20.18.
From the text: as §1, §2
Actophotometer (Activity cage) is designed to study the spontaneous or induced or locomotor activity in small animals like mice or rats. In this apparatus, the Optical sensors and emitters are present to record the horizontal movements of the animals on a six-digit digital counter display. Each animal was placed in Actophotometer for 5 minutes and basal activity score was recorded for all animals. Each animal was treated with respective drugs and activity score was recorded after 1, 2, and 3 hours.

Experiment [8] concerns Myelin Oligodendrocyte Glycoprotein (MOG), Brain Derived Neurotrophic Factor (BDNF). The experiment can be described thus: Dose response study, MOG and BDNF in serum. The following applies: orally once per day for 8 weeks; from serum MOG and BDNF dose response.
From the text: as §1
Withaferin A or BDMC were administered orally once per day to mouse, for 8 weeks after treatment with Cuprizone and Rapamycin (Table 1). The dose response of BDMC or Withaferin was assessed by measuring concentration of biomarkers, Myelin Oligodendrocyte Glycoprotein (MOG) (FIG. 1) Brain Derived Neurotrophic Factor (BDNF) (FIG. 2), in serum.

The subject of experiment [9] is Amphoterin-induced protein 3 (AMIGO3). The experiment can be described thus: AMIGO3 in brain tissue homogenate (ELISA), cuprizone/rapamycin demyelination model. To be noted: compared to the demyelination control, Withaferin A 25 mg/kg, BDMC 12.5 mg/kg, combination 37.5 mg/kg, orally once per day.
From the text: as §1, §2, §3

Experiment [10] deals with Platelet Derived Growth Factor Receptor alpha (PDGFRa). The experiment can be described thus: PDGFRa in brain tissue homogenate (ELISA), cuprizone/rapamycin demyelination model. The following applies: compared to the demyelination control, Withaferin A 25 mg/kg, BDMC 12.5 mg/kg, combination 37.5 mg/kg, orally once per day.
From the text: as §1, §2, §3

Experiment [11] concerns C56BL/6 J mice. Description: Immunohistochemistry of brain for demyelination/remyelination. To be noted: GST-π staining; Withaferin A 25 mg/kg, BDMC 12.5 mg/kg, combination 37.5 mg/kg; versus demyelinated control.
From the text: as §1, §2

The structures appear in SMILES notation.

As for `O=C(/C=C/c1ccc(O)cc1)CC(=O)/C=C/c1ccc(O)cc1` [BDMC, Bisdemethoxycurcumin], the “down regulation of TRPA1 inflammatory marker” value in experiment [1] amounted to 17%. In addition, the “proliferation of Myelin basic protein (MBP)” value in [2] came to 122%. The “down regulation of CXC chemokine receptor 2 (CXCR2) inflammatory marker” value in experiment [3] is on record as 35%. Moreover, the “down regulation of C-reactive Protein (CRP) inflammatory marker” value in the experiment with C-reactive Protein (CRP) amounted to 35%. The “upregulation of NG2” value in experiment [4] was determined as 90%. For the same compound, the “improvement in the grip strength” value in the experiment on C56BL/6 J mice [5] is 37.5%. Moreover, the “No. of mice which stayed on rota rod/total no. of animals” value in the experiment with C56BL/6 J mice [6] is on record as 5/10. Moreover, in the experiment with C56BL/6 J mice [7], the “locomotor activity score, 3 hr after treatment” value was found to be 190 ± 7.35; the “locomotor activity score, 2 hr after treatment” value is 200 ± 10.70; the “locomotor activity score, 1 hr after treatment” value was 220 ± 21.11. The optimum effective dose in experiment [8] worked out at 12.5 mg/kg. Further, the “down regulation of AMIGO3 inflammatory marker” value in experiment [9] is 27%. Also, the “upregulation of PDGFRa” value in [10] came out at 73%.

As to `CC1=C(CO)C(=O)O[C@@H]([C@@H](C)[C@H]2CC[C@H]3[C@@H]4C[C@H]5O[C@]56[C@@H](O)C=CC(=O)[C@]6(C)[C@H]4CC[C@]23C)C1` [Withaferin A], the “down regulation of TRPA1 inflammatory marker” value in experiment [1] was 43%. In addition, the “proliferation of Myelin basic protein (MBP)” value in [2] amounted to 64%. For the same compound, the “down regulation of CXC chemokine receptor 2 (CXCR2) inflammatory marker” value in [3] amounted to 32%. For the same compound, the “immunohistochemistry findings of cerebellar cortical layer” value in the experiment on C56BL/6 J mice [11] is “few degenerated Purkinje cells with pyknotic cell bodies and inconspicuous dendritic processes”. Further, the “down regulation of C-reactive Protein (CRP) inflammatory marker” value with C-reactive Protein (CRP) is 32%. The “upregulation of NG2” value in experiment [4] is on record as 30%. Also, in the experiment with C56BL/6 J mice [5], the “improvement in the grip strength” value stood at 25%. In the experiment on C56BL/6 J mice [6], the “No. of mice which stayed on rota rod/total no. of animals” value is given as 5 out of 10. The “No. of mice which stayed on rota rod/total no. of animals” value in the experiment on C56BL/6 J mice [6] (listed as Withaferin) is reported as 5/10. In the experiment with C56BL/6 J mice [7], the “locomotor activity score, 3 hr after treatment” value is listed as 200 ± 9.01; the “locomotor activity score, 2 hr after treatment” value came to 210 ± 17.23; the “locomotor activity score, 1 hr after treatment” value is given as 240 ± 17.22. The optimum effective dose in [8] turned out to be 25 mg/kg. In experiment [9], the “down regulation of AMIGO3 inflammatory marker” value amounted to 36%. Moreover, in experiment [10], the “upregulation of PDGFRa” value was 22%.
